Drawing on ChEMBL document CHEMBL3044687, “Microwave-assisted synthesis of some novel and potent antibacterial and antifungal compounds with biological screening” (2012), this text covers zone of inhibition for eight compounds.

What all share (type): functional
Conditions in all cases: read-out: DIZ

Experiment [1] concerns Pseudomonas aeruginosa. The experiment can be described thus: Antibacterial activity against Pseudomonas aeruginosa at 100 ug/ml after 24 hr by disk diffusion method.
Experiment [2] has as its system Aspergillus niger. The experiment is described as follows: Antifungal activity against Aspergillus niger at 200 ug/ml after 48 hr by disk diffusion method.
The subject of experiment [3] is Escherichia coli. The experiment is described as follows: Antibacterial activity against Escherichia coli at 50 ug/ml after 24 hr by disk diffusion method.
Experiment [4] concerns Pseudomonas aeruginosa. The experiment is described as follows: Antibacterial activity against Pseudomonas aeruginosa at 200 ug/ml after 24 hr by disk diffusion method.
For experiment [5], the system named is Staphylococcus aureus. The experiment can be described thus: Antibacterial activity against Staphylococcus aureus at 50 ug/ml after 24 hr by disk diffusion method.
Experiment [6] deals with Escherichia coli. The experiment is described as follows: Antibacterial activity against Escherichia coli at 100 ug/ml after 24 hr by disk diffusion method.
For experiment [7], the system named is Staphylococcus aureus. The experiment is described as follows: Antibacterial activity against Staphylococcus aureus at 100 ug/ml after 24 hr by disk diffusion method.
The test system of experiment [8] is Staphylococcus aureus. The experiment is described as follows: Antibacterial activity against Staphylococcus aureus at 200 ug/ml after 24 hr by disk diffusion method.
For experiment [9], the system named is Candida albicans. The experiment is described as follows: Antifungal activity against Candida albicans at 200 ug/ml after 48 hr by disk diffusion method.
Experiment [10] relates to Candida albicans. The experiment can be described thus: Antifungal activity against Candida albicans at 50 ug/ml after 48 hr by disk diffusion method.
The test system of experiment [11] is Bacillus subtilis. The experiment can be described thus: Antibacterial activity against Bacillus subtilis at 100 ug/ml after 24 hr by disk diffusion method.
The subject of experiment [12] is Bacillus subtilis. The experiment can be described thus: Antibacterial activity against Bacillus subtilis at 200 ug/ml after 24 hr by disk diffusion method.
Experiment [13] deals with Escherichia coli. The experiment is described as follows: Antibacterial activity against Escherichia coli at 200 ug/ml after 24 hr by disk diffusion method.
For experiment [14], the system named is Aspergillus niger. The experiment can be described thus: Antifungal activity against Aspergillus niger at 50 ug/ml after 48 hr by disk diffusion method.
The test system of experiment [15] is Candida albicans. The experiment can be described thus: Antifungal activity against Candida albicans at 100 ug/ml after 48 hr by disk diffusion method.
The test system of experiment [16] is Aspergillus niger. The experiment can be described thus: Antifungal activity against Aspergillus niger at 100 ug/ml after 48 hr by disk diffusion method.
In experiment [17] the test system is Bacillus subtilis. The experiment can be described thus: Antibacterial activity against Bacillus subtilis at 50 ug/ml after 24 hr by disk diffusion method.
Experiment [18] deals with Pseudomonas aeruginosa. The experiment is described as follows: Antibacterial activity against Pseudomonas aeruginosa at 50 ug/ml after 24 hr by disk diffusion method.

With `O=C1N(c2ccccc2)C(=O)C(c2ccccc2)(c2ccccc2)N1CNc1nc2ccccc2s1`, the zone of inhibition at 100 µg/mL in the experiment on Pseudomonas aeruginosa [1] turned out to be 12 mm; in the experiment with Escherichia coli [6], 15 mm; with Staphylococcus aureus [7], 10 mm; in the experiment with Bacillus subtilis [11] it was 10 mm; with Candida albicans [15], 15 mm; in the experiment with Aspergillus niger [16], 16 mm. The zone of inhibition at 200 µg/mL in the experiment on Aspergillus niger [2] was 20 mm; in the experiment on Pseudomonas aeruginosa [4], 20 mm; with Staphylococcus aureus [8], 17 mm; with Candida albicans [9], 20 mm; in the experiment on Bacillus subtilis [12], 18 mm; with Escherichia coli [13], 17 mm. Further, the zone of inhibition at 50 µg/mL with Escherichia coli [3] was found to be 6 mm; in the experiment with Staphylococcus aureus [5], 5 mm; with Candida albicans [10] it was 13 mm; in the experiment on Aspergillus niger [14], 16 mm; in the experiment on Bacillus subtilis [17], 7 mm; with Pseudomonas aeruginosa [18] it was 7 mm.
Consider `CN1CCN(CN2C(=O)NC(c3ccccc3)(c3ccccc3)C2=O)CC1`, for which the zone of inhibition at 100 µg/mL worked out at 6 mm in the experiment with Pseudomonas aeruginosa [1]; 13 mm in the experiment on Escherichia coli [6]; 12 mm with Staphylococcus aureus [7]; 12 mm in the experiment on Bacillus subtilis [11]; 13 mm in the experiment with Candida albicans [15]; 12 mm in the experiment with Aspergillus niger [16]. The zone of inhibition at 200 µg/mL with Aspergillus niger [2] amounted to 12 mm; in the experiment with Pseudomonas aeruginosa [4] it was 10 mm; in the experiment on Staphylococcus aureus [8], 20 mm; with Candida albicans [9], 13 mm; in the experiment with Bacillus subtilis [12], 19 mm; in the experiment on Escherichia coli [13], 16 mm. Further, the zone of inhibition at 50 µg/mL in the experiment with Escherichia coli [3] is 6 mm; with Staphylococcus aureus [5] it was 6 mm; with Candida albicans [10], 12 mm; in the experiment with Aspergillus niger [14], 11 mm; in the experiment on Bacillus subtilis [17], 4 mm; with Pseudomonas aeruginosa [18], 4 mm.
Turning to `O=C1NC(c2ccccc2)(c2ccccc2)C(=O)N1Cn1nnc2ccccc21`, the zone of inhibition at 100 µg/mL in the experiment with Pseudomonas aeruginosa [1] is 10 mm; with Escherichia coli [6], 10 mm; with Staphylococcus aureus [7], 12 mm; in the experiment with Bacillus subtilis [11], 14 mm; in the experiment with Candida albicans [15], 12 mm; with Aspergillus niger [16], 11 mm. The zone of inhibition at 200 µg/mL in the experiment on Aspergillus niger [2] stood at 11 mm; in the experiment on Pseudomonas aeruginosa [4] it was 14 mm; with Staphylococcus aureus [8], 18 mm; with Candida albicans [9], 13 mm; with Bacillus subtilis [12] it was 22 mm; with Escherichia coli [13], 18 mm. Also, the zone of inhibition at 50 µg/mL was 3 mm in the experiment with Escherichia coli [3]; 6 mm with Staphylococcus aureus [5]; 11 mm in the experiment with Candida albicans [10]; 11 mm with Aspergillus niger [14]; 5 mm in the experiment with Bacillus subtilis [17]; 6 mm in the experiment with Pseudomonas aeruginosa [18].
Turning to `O=C1NC(c2ccccc2)(c2ccccc2)C(=O)N1Cn1cnc2ccccc21`, the zone of inhibition at 100 µg/mL with Pseudomonas aeruginosa [1] worked out at 11 mm; with Escherichia coli [6], 15 mm; with Staphylococcus aureus [7], 13 mm; in the experiment with Bacillus subtilis [11], 13 mm; with Candida albicans [15], 24 mm; with Aspergillus niger [16], 19 mm. In addition, the zone of inhibition at 200 µg/mL is 32 mm with Aspergillus niger [2]; 14 mm in the experiment with Pseudomonas aeruginosa [4]; 15 mm in the experiment on Staphylococcus aureus [8]; 32 mm with Candida albicans [9]; 23 mm in the experiment on Bacillus subtilis [12]; 24 mm in the experiment with Escherichia coli [13]. Further, the zone of inhibition at 50 µg/mL in the experiment with Escherichia coli [3] stood at 7 mm; in the experiment on Staphylococcus aureus [5], 5 mm; with Candida albicans [10], 16 mm; with Aspergillus niger [14] it was 16 mm; with Bacillus subtilis [17], 5 mm; in the experiment with Pseudomonas aeruginosa [18], 6 mm.
On to `O=C1c2ccccc2C(=O)N1CN1C(=O)N(c2ccccc2)C(=O)C1(c1ccccc1)c1ccccc1`, for which the zone of inhibition at 100 µg/mL was found to be 8 mm with Pseudomonas aeruginosa [1]; 12 mm in the experiment with Escherichia coli [6]; 6 mm with Staphylococcus aureus [7]; 10 mm in the experiment with Bacillus subtilis [11]; 16 mm in the experiment with Candida albicans [15]; 15 mm in the experiment with Aspergillus niger [16]. Further, the zone of inhibition at 200 µg/mL turned out to be 16 mm in the experiment with Aspergillus niger [2]; 10 mm in the experiment with Pseudomonas aeruginosa [4]; 9 mm with Staphylococcus aureus [8]; 20 mm in the experiment on Candida albicans [9]; 14 mm in the experiment with Bacillus subtilis [12]; 20 mm with Escherichia coli [13]. Further, the zone of inhibition at 50 µg/mL is 5 mm in the experiment on Escherichia coli [3]; 4 mm in the experiment with Staphylococcus aureus [5]; 15 mm in the experiment with Candida albicans [10]; 12 mm in the experiment with Aspergillus niger [14]; 4 mm with Bacillus subtilis [17]; 5 mm with Pseudomonas aeruginosa [18].
With `O=C1NC(c2ccccc2)(c2ccccc2)C(=O)N1CN1C(=O)c2ccccc2C1=O`, the zone of inhibition at 100 µg/mL in the experiment with Pseudomonas aeruginosa [1] turned out to be 8 mm; with Escherichia coli [6], 12 mm; in the experiment with Staphylococcus aureus [7], 6 mm; with Bacillus subtilis [11], 12 mm; in the experiment with Candida albicans [15], 16 mm; with Aspergillus niger [16] it was 15 mm. The zone of inhibition at 200 µg/mL in the experiment on Aspergillus niger [2] is 16 mm; with Pseudomonas aeruginosa [4], 10 mm; in the experiment on Staphylococcus aureus [8], 9 mm; in the experiment on Candida albicans [9], 20 mm; in the experiment on Bacillus subtilis [12] it was 16 mm; in the experiment with Escherichia coli [13], 20 mm. The zone of inhibition at 50 µg/mL is 5 mm in the experiment on Escherichia coli [3]; 4 mm in the experiment on Staphylococcus aureus [5]; 15 mm with Candida albicans [10]; 12 mm in the experiment on Aspergillus niger [14]; 4 mm in the experiment on Bacillus subtilis [17]; 5 mm with Pseudomonas aeruginosa [18].
With `O=C1N(c2ccccc2)C(=O)C(c2ccccc2)(c2ccccc2)N1Cn1nnc2ccccc21`, the zone of inhibition at 100 µg/mL was 10 mm with Pseudomonas aeruginosa [1]; 8 mm in the experiment on Escherichia coli [6]; 10 mm with Staphylococcus aureus [7]; 12 mm in the experiment on Bacillus subtilis [11]; 12 mm in the experiment on Candida albicans [15]; 11 mm with Aspergillus niger [16]. For the same compound, the zone of inhibition at 200 µg/mL in the experiment with Aspergillus niger [2] was determined as 11 mm; in the experiment with Pseudomonas aeruginosa [4], 12 mm; with Staphylococcus aureus [8], 14 mm; in the experiment on Candida albicans [9], 13 mm; in the experiment with Bacillus subtilis [12], 18 mm; in the experiment with Escherichia coli [13] it was 14 mm. Also, the zone of inhibition at 50 µg/mL worked out at 3 mm in the experiment on Escherichia coli [3]; 4 mm in the experiment on Staphylococcus aureus [5]; 11 mm in the experiment with Candida albicans [10]; 11 mm with Aspergillus niger [14]; 5 mm in the experiment with Bacillus subtilis [17]; 6 mm in the experiment on Pseudomonas aeruginosa [18].
`O=C1NC(c2ccccc2)(c2ccccc2)C(=O)N1CN1CCOCC1`: the zone of inhibition at 100 µg/mL in the experiment on Pseudomonas aeruginosa [1] turned out to be 8 mm; in the experiment with Escherichia coli [6] it was 10 mm; in the experiment on Staphylococcus aureus [7] it was 6 mm; in the experiment with Bacillus subtilis [11] it was 12 mm; in the experiment on Candida albicans [15], 12 mm; in the experiment with Aspergillus niger [16] it was 11 mm. Besides, the zone of inhibition at 200 µg/mL in the experiment with Aspergillus niger [2] is 12 mm; in the experiment with Pseudomonas aeruginosa [4] it was 14 mm; with Staphylococcus aureus [8] it was 9 mm; with Candida albicans [9], 15 mm; in the experiment with Bacillus subtilis [12], 14 mm; in the experiment on Escherichia coli [13], 17 mm. For the same compound, the zone of inhibition at 50 µg/mL with Escherichia coli [3] is 4 mm; in the experiment on Staphylococcus aureus [5], 5 mm; with Candida albicans [10] it was 10 mm; in the experiment with Aspergillus niger [14], 10 mm; with Bacillus subtilis [17], 4 mm; in the experiment with Pseudomonas aeruginosa [18] it was 4 mm.
